The term IC50 denotes the concentration needed to halve the response being measured.

SMILES strings stand for the structures. Where two headings read alike, the source gives them in different places.

This assay concerns the target T1, HDM2 (Homo sapiens, UniProt Q00987).
T1 construct: Thioredoxin (N); made in house; host or cells: E. coli strain BL21(DE3)Rosetta
Briefly: HDM2 FRET assay (inhibition of binding of FITC labeled p53-pocket peptide to HDM2). The following applies: for IC50: read-out: FRET IC50. Put shortly: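 Compounds were tested in 10-point serial dilution against 0.5 nM recombinant HDM2 binding 3 nM fluorescein-labeled p53-pocket peptide. Detection used 0.25 nM terbium cryptate anti-6xHis antibody in PBS buffer containing 0.01% BSA and 0.01% Tween-20.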

Setting [1] is: 0.5 nM HDM2 (residues 17 to 125), 3nM peptide, two hour incubation at room temperature.

T1 sequence (Q00987 17-125): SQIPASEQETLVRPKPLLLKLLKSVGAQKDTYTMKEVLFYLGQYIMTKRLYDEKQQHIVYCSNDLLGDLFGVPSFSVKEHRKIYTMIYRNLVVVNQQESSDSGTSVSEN

As for `C[C@H]1CC[C@H](Cn2c(N3CCC[C@H]3C(F)(F)F)nc3nc(-c4noc(=O)[nH]4)nc(-c4cccc(Cl)c4)c32)CC1` [Example 16.69, 3-{6-(3-chlorophenyl)-7-[(trans-4-methylcyclohexyl)methyl]-8-[(2S)-2-(trifluoromethyl)pyrrolidin-1-yl]-7H-purin-2-yl}-1,2,4-oxadiazol-5 (4H)-one], under setting [1], the 50% inhibitory concentration (IC50) was 0.918 nM.

As for `CC(C)C1CCCN1c1nc2nc(-c3noc(=O)[nH]3)nc(N[C@H](C)C3CCC3)c2n1Cc1ccc(C(F)(F)F)cc1` (stereo partly drawn) [Example 9.86, 3-(6-{[(1R)-1-cyclobutylethyl]amino}-8-[2-(1-methylethyl)pyrrolidin-1-yl]-7-[4-(trifluoromethyl)benzyl]-7H-purin-2-yl)-1,2,4-oxadiazol-5(4H)-one], the IC50 (Table 9) stood at 10.2 nM.

On to `C[C@@H](Nc1nc(-c2noc(=O)[nH]2)nc2nc(C(C)(F)c3ccccc3)n(C[C@H]3CC[C@H](C)CC3)c12)C1CCC1` (single isomer, unassigned) [Example 22.78], for which the 50% inhibitory concentration (IC50) (Table 22) was determined as 12.3 nM.

With `CCC1CC=C(Cn2c(-c3cc(C(C)C)ccn3)nc3nc(C(=O)O)nc(N[C@H](C)C4CCC4)c32)CC1` (stereo partly drawn) [Example 18.23, 6-{[(1R)-1-cyclobutylethyl]amino}-7-[(4-ethylcyclohex-1-en-1-yl)methyl]-8-[4-(1-methylethyl)pyridin-2-yl]-7H-purine-2-carboxylic acid], the IC50 (Table 18) is 26.4 nM.

As to `C[C@@H](Nc1nc(C(=O)O)nc2nc(N3CCCC[C@H]3c3ccccc3)n(Cc3ccc(C(F)(F)F)cc3)c12)C1CCC1` [Example 9.63, 6-{[(1R)-1-cyclobutylethyl]amino}-8-[(2S)-2-phenylpiperidin-1-yl]-7-[4-(trifluoromethyl)benzyl]-7H-purine-2-carboxylic acid], the half-maximal inhibitory concentration (IC50) (Table 9) was found to be 3.06 nM.

With `CC([C@H]1CC[C@H](C)CC1)n1c(N2CCC[C@H]2CF)nc2nc(-c3n[nH]c(=O)o3)nc(-c3cncc(Cl)c3)c21` (single isomer, unassigned) [Example 18.47], the half-inhibitory concentration (IC50) (Table 18) was determined as 5.14 nM.

As to `CNC(=O)c1nc(N[C@H](C)C2CCC2)c2c(n1)nc(-c1cccc(C)c1)n2Cc1ccc(C(F)(F)F)cc1` [Example 12.30, 6-{[(1R)-1-cyclobutylethyl]amino}-N-methyl-8-(3-methylphenyl)-7-[4-(trifluoromethyl)benzyl]-7H-purine-2-carboxamide], the half-inhibitory concentration (IC50) under setting [1] was 873 nM.

With `COC(=O)c1nc(N[C@H](C)C2CCC2)c2c(n1)nc(N1CCOC[C@H]1c1ccccc1)n2C[C@H]1CC[C@H](C)CC1` [Example 12.13, Methyl-6-{[(1R)-1-cyclobutylethyl]amino}-7-[(trans-4-methylcyclohexyl)methyl]-8-[(3R)-3-phenylmorpholin-4-yl]-7H-purine-2-carboxylate], the IC50 under setting [1] turned out to be 49.4 nM.

Regarding `C[C@@H](Nc1nc(C(=O)O)nc2nc(N(C)Cc3ccccc3)n(Cc3ccc(C(F)(F)F)cc3)c12)C1CCC1` [Example 9.14, 8-[benzyl(methyl)amino]-6-{[(1R)-1-cyclobutylethyl]amino}-7-[4-(trifluoromethyl)benzyl]-7H-purine-2-carboxylic acid], the IC50 (Table 9) came to 5.62 nM.

For the molecule `CCCN(c1nc2nc(C(=O)O)nc(N[C@H](C)C3CCC3)c2n1Cc1ccc(C(F)(F)F)cc1)C(C)c1ccccn1` (stereo partly drawn) [Example 10.32, 6-(((R)-1-cyclobutylethyl)amino)-8-(propyl(1-(pyridin-2-yl)ethyl)amino)-7-(4-(trifluoromethyl)benzyl)-7H-purine-2-carboxylic acid], the IC50 (Table 10) stood at 3.72 nM.

Turning to `Cc1cccc(-c2nc3nc(C(=O)O)nc(NC4CCCC(C)C4)c3n2Cc2ccc(C(F)(F)F)cc2)c1` (centres unmarked) [Example 6.20, 6-[(3-methylcyclohexyl)amino]-8-(3-methylphenyl)-7-[4-(trifluoromethyl)benzyl]-7H-purine-2-carboxylic acid], the IC50 (Table 6) came out at 567 nM.

In the case of `CC(C)C1CCCN(c2nc3nc(C(=O)O)nc(N[C@H](C)C4CCC4)c3n2Cc2ccc(C(F)(F)F)cc2)C1` (stereo partly drawn) [Example 9.46, 6-{[(1R)-1-cyclobutylethyl]amino}-8-[3-(1-methylethyl)piperidin-1-yl]-7-[4-(trifluoromethyl)benzyl]-7H-purine-2-carboxylic acid], the IC50 (Table 9) worked out at 26.2 nM.

On to `COCCN(C)c1nc2nc(-c3noc(=O)[nH]3)nc(N[C@H](C)C3CCC3)c2n1C[C@H]1CC[C@H](C)CC1` [Example 11.116, 3-(6-{[(1R)-1-cyclobutylethyl]amino}-8-[(2-methoxyethyl)(methyl)amino]-7-[(trans-4-methylcyclohexyl)methyl]-7H-purin-2-yl)-1,2,4-oxadiazol-5(2H)-one], for which the IC50 (Table 11) worked out at 21 nM.

As to `C[C@@H](Nc1nc(-c2noc(=O)[nH]2)nc2nc(N(C)Cc3ccon3)n(C[C@H]3CC[C@H](C)CC3)c12)C1CCC1` [Example 11.64, 3-(6-{[(1R)-1-cyclobutylethyl]amino}-8-[(isoxazol-3-ylmethyl)(methyl)amino]-7-[(trans-4-methylcyclohexyl)methyl]-7H-purin-2-yl)-1,2,4-oxadiazol-5(4H)-one], the concentration for half-maximal inhibition (IC50) (Table 11) amounted to 5.77 nM.

For the molecule `CC(C)c1ccnc(-c2nc3nc(CO)nc(N[C@H](C)C4CCC4)c3n2C[C@H]2CC[C@H](C)CC2)c1` [Example 12.34, (6-{[(1R)-1-cyclobutylethyl]amino}-7-[(trans-4-methylcyclohexyl)methyl]-8-[4-(1-methylethyl)pyridin-2-yl]-7H-purin-2-yl)methanol], the IC50 under setting [1] was determined as 301 nM.

Regarding `Cc1cccc(-c2nc3nc(C(=O)O)nc(N(C)Cc4ccccc4)c3n2Cc2ccc(C(F)(F)F)cc2)c1` [Example 6.67, 6-[benzyl(methyl)amino]-8-(3-methylphenyl)-7-[4-(trifluoromethyl)benzyl]-7H-purine-2-carboxylic acid], where the note is “read-out: inh. at 1000 nM (FRET)”, the inhibition at 1 µM is 30%.

As to `C[C@@H](Nc1nc(S(=O)(=O)CC(F)(F)F)nc2nc(N3CCOC[C@H]3c3ccccc3)n(C[C@H]3CC[C@H](C)CC3)c12)C1CCC1` [Example 14.15, N-[(1R)-1-cyclobutylethyl]-7-[(trans-4-methylcyclohexyl)methyl]-8-[(3R)-3-phenylmorpholin-4-yl]-2-[(2,2,2-trifluoroethyl)sulfonyl]-7H-purin-6-amine], the IC50 under setting [1] was found to be 220 nM.

Consider `C[C@@H](Nc1nc(-c2noc(=O)[nH]2)nc2nc(C3(c4ccncc4)CC3)n(C[C@H]3CC[C@H](C)CC3)c12)C1CCC1` [Example 22.53, 3-[6-{[(1R)-1-cyclobutylethyl]amino}-7-[(trans-4-methylcyclohexyl)methyl] -8-(1-pyridin-4-ylcyclopropyl)-7H-purin-2-yl]-1,2,4-oxadiazol-5(4H)-one], for which the half-inhibitory concentration (IC50) (Table 22) stood at 4.6 nM.

Turning to `CS(=O)(=O)c1cc(Cl)cc(-c2nc(-c3noc(=O)[nH]3)nc3nc(N4CCOC[C@H]4c4ccccc4)n(C[C@H]4CC[C@H](C)CC4)c23)c1` [Example 16.111, 3-{6-[3-chloro-5-(methylsulfonyl)phenyl]-7-[(trans-4-methylcyclohexyl)methyl]-8-[(3R)-3-phenylmorpholin-4-yl]-7H-purin-2-yl}-1,2,4-oxadiazol-5(4H)-one], the IC50 under setting [1] came to 2.9 nM.

For `Cc1cccc(-c2nc(C(=O)O)nc3nc(-c4cc(C(C)C)ccn4)n(C[C@H]4CC[C@H](C)CC4)c23)c1` [Example 16.14, 7-[(trans-4-methylcyclohexyl)methyl]-8-[4-(1-methylethyl)pyridin-2-yl]-6-(3-methylphenyl)-7H-purine-2-carboxylic acid], the IC50 under setting [1] was found to be 35.5 nM.

As to `Cc1cccc(-c2nc(-c3noc(=O)[nH]3)nc3nc(N4CCOC[C@H]4C)n(C[C@H]4CC[C@H](C)CC4)c23)c1` [Example 16.28, 3-{7-[(trans-4-methylcyclohexyl)methyl]-8-[(3R)-3-methylmorpholin-4-yl]-6-(3-methylphenyl)-7H-purin-2-yl}-1,2,4-oxadiazol-5(4H)-one], the half-maximal inhibitory concentration (IC50) under setting [1] is 38.7 nM.

As for `C[C@@H]1[C@@H](C)OCCN1c1nc2nc(-c3noc(=O)[nH]3)nc(-c3cncc(Cl)c3)c2n1C[C@H]1CC[C@H](C)CC1` [Example 16.136, 3-{6-(5-chloropyridin-3-yl)-8-[(2R,3R)-2,3-dimethylmorpholin-4-yl]-7-[(trans-4-methylcyclohexyl)methyl]-7H-purin-2-yl}-1,2,4-oxadiazol-5(4H)-one], the 50% inhibitory concentration (IC50) under setting [1] turned out to be 7.19 nM.

Regarding `C[C@@H](Nc1nc(-c2noc(=O)[nH]2)nc2nc(C(=O)C3CCOCC3)n(C[C@H]3CC[C@H](C)CC3)c12)C1CCC1` [Example 22.31, 3-[6-{[(1R)-1-cyclobutylethyl]amino}-7-[(trans-4-methylcyclohexyl)methyl] -8-(tetrahydro-2H-pyran-4-ylcarbonyl)-7H-purin-2-yl]-1,2,4-oxadiazol-5(4H)-one], the half-inhibitory concentration (IC50) (Table 22) worked out at 6.45 nM.

For the molecule `COC(c1ccccc1)c1nc2nc(-c3noc(=O)[nH]3)nc(-c3cccc(Cl)c3)c2n1C[C@H]1CC[C@H](C)CC1` (single isomer, unassigned) [Example 23.44, 3-{6-(3-chlorophenyl)-8-[methoxy(phenyl)methyl]-7-[(trans-4-methylcyclohexyl)methyl] -7H-purin-2-yl}-1,2,4-oxadiazol-5(4H)-one], the half-maximal inhibitory concentration (IC50) (Table 23) came to 4.53 nM.

On to `C[C@H]1CC[C@H](Cn2c(N3CCOCC34CC4)nc3nc(-c4n[nH]c(=O)o4)nc(-c4cccc(Cl)c4)c32)CC1` [Example 16.88, 5-[6-(3-chlorophenyl)-7-[(trans-4-methylcyclohexyl)methyl]-8-(7-oxa-4-azaspiro[2.5]oct-4-yl)-7H-purin-2-yl]-1,3,4-oxadiazol-2(3H)-one], for which the 50% inhibitory concentration (IC50) under setting [1] is 39.1 nM.

As to `CC[C@H](Nc1nc2nc(-c3n[nH]c(=O)o3)nc(-c3cccc(Cl)c3)c2n1C[C@H]1CC[C@H](C)CC1)c1cccc(F)c1` [Example 16.76, 5-{6-(3-chlorophenyl)-8-{[(1S)-1-(3-fluorophenyl)propyl]amino}-7-[(trans-4-methylcyclohexyl)methyl]-7H-purin-2-yl}-1,3,4-oxadiazol-2(3H)-one], the half-inhibitory concentration (IC50) under setting [1] is 13.2 nM.

(Values after patent EP2951180B1, “2,6,7,8 SUBSTITUTED PURINES AS HDM2 INHIBITORS” (Merck Sharp & Dohme Corp., priority 2013, dated 2014).)
